Values joined by “and” are separate entries in the source; they are usually repeats but may differ in a detail not shown here. Identical values can stand only once. Toxic doses and inconclusive results are not listed. No stated cut-off is given here; in the data, active means T/C of 150% or more; inactive means T/C below 125%.
Test system: L1210 leukemia ip in BDF1 mice, survival T/C
Test: NCI In Vivo Anticancer Drug Screen. Data for tumor model L1210 Leukemia (intraperitoneal) in B6D2F1 (BDF1) mice
Details: endpoint: mean survival time, higher = longer survival
In short: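 Each compound was tested against a transplantable tumor grown in mice. The endpoint was survival, with treated animals benchmarked against vehicle controls as a simple ratio.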

[1] = dose: 12.0 mg/kg/injection, schedule: Q04DX003 (ip), vehicle: saline
[2] = dose: 25.0 mg/kg/injection, schedule: Q04DX003 (ip), vehicle: saline
[3] = dose: 100.0 mg/kg/injection, schedule: Q01DX001 (ip), vehicle: saline
[4] = dose: 200.0 mg/kg/injection, schedule: Q01DX001 (ip), vehicle: saline
[5] = dose: 400.0 mg/kg/injection, schedule: Q01DX001 (ip), vehicle: saline
[6] = dose: 100.0 mg/kg/injection, schedule: Q04DX003 (ip), vehicle: Klucel (hydroxypropylcellulose) (HPC)
[7] = dose: 200.0 mg/kg/injection, schedule: Q04DX003 (ip), vehicle: Klucel (hydroxypropylcellulose) (HPC)
[8] = dose: 400.0 mg/kg/injection, schedule: Q04DX003 (ip), vehicle: Klucel (hydroxypropylcellulose) (HPC)
[9] = dose: 100.0 mg/kg/injection, schedule: Q04DX003 (ip), vehicle: saline
[10] = dose: 200.0 mg/kg/injection, schedule: Q04DX003 (ip), vehicle: saline
[11] = dose: 400.0 mg/kg/injection, schedule: Q04DX003 (ip), vehicle: saline
[12] = dose: 50.0 mg/kg/injection, schedule: Q01DX001 (ip), vehicle: carboxymethylcellulose (CMC)
[13] = dose: 100.0 mg/kg/injection, schedule: Q01DX001 (ip), vehicle: carboxymethylcellulose (CMC)
[14] = dose: 200.0 mg/kg/injection, schedule: Q01DX001 (ip), vehicle: carboxymethylcellulose (CMC)
[15] = dose: 100.0 mg/kg/injection, schedule: Q04DX002 (ip), vehicle: saline with Tween-80
[16] = dose: 200.0 mg/kg/injection, schedule: Q04DX002 (ip), vehicle: saline with Tween-80
[17] = dose: 100.0 mg/kg/injection, schedule: Q01DX009 (ip), vehicle: Klucel (hydroxypropylcellulose) (HPC)
[18] = dose: 200.0 mg/kg/injection, schedule: Q01DX009 (ip), vehicle: Klucel (hydroxypropylcellulose) (HPC)
[19] = dose: 400.0 mg/kg/injection, schedule: Q01DX009 (ip), vehicle: Klucel (hydroxypropylcellulose) (HPC)
[20] = dose: 100.0 mg/kg/injection, schedule: Q01DX009 (ip), vehicle: saline with Tween-80
[21] = dose: 200.0 mg/kg/injection, schedule: Q01DX009 (ip), vehicle: saline with Tween-80
[22] = dose: 400.0 mg/kg/injection, schedule: Q01DX009 (ip), vehicle: saline with Tween-80
[23] = dose: 75.0 mg/kg/injection, schedule: Q01DX001 (ip), vehicle: saline
[24] = dose: 50.0 mg/kg/injection, schedule: Q01DX001 (ip), vehicle: saline

Measured: T/C

O=c1c2ccccc2[nH]c2ccc(-n3nnc4ccccc4c3=O)cc12
inactive: dose: 6.0 mg/kg/injection, schedule: Q04DX003 (ip), vehicle: saline 103 % of control | [1] 89 % of control | [2] 94 % of control

CC1(C)N=C(N)N=C(N)N1c1cccc(OCCCOc2ccc(NC(=O)/C=C\C(=O)O)cc2)c1
inactive: [3] 102 % of control | [4] 101 % of control | [5] 102 % of control

Nc1c(-c2ccccc2)nnn1-c1cccc(Cl)c1
inactive: dose: 25.0 mg/kg/injection, schedule: Q04DX002 (ip), vehicle: gum acacia 95 % of control | dose: 50.0 mg/kg/injection, schedule: Q04DX002 (ip), vehicle: gum acacia 95 % of control | dose: 100.0 mg/kg/injection, schedule: Q04DX002 (ip), vehicle: gum acacia 96 % of control and 98 % of control

CCCCCCCCCCOc1ccc(C=O)c(OC)c1
inactive: [6] 98 % of control | [7] 93 % of control | [8] 91 % of control

O=C(O)CCc1c2ccc(=O)c(O)c-2oc2c(O)c(O)ccc12
inactive: [9] 106 % of control | [10] 105 % of control | [11] 100 % of control

c1ccc2c(c1)-c1ccccc1-2
inactive: [12] 97 % of control | [13] 97 % of control | [14] 97 % of control | dose: 400.0 mg/kg/injection, schedule: Q01DX001 (ip), vehicle: carboxymethylcellulose (CMC) 103 % of control

CSCC(O)CSC
inactive: [15] 90 % of control | [16] 93 % of control | dose: 400.0 mg/kg/injection, schedule: Q04DX002 (ip), vehicle: saline with Tween-80 87 % of control

CCS(=O)(=O)Nc1ccc(NS(=O)(=O)CC)cc1
inactive: [17] 96 % of control | [18] 100 % of control | [19] 101 % of control

COc1ccc2ccccc2c1/C=N/N1CCCCC1
inactive: [20] 100 % of control | [21] 93 % of control | [22] 100 % of control

Cc1ccc(C)c2c1CC(C(=O)O)CC2C (stereo not drawn)
inactive: [9] 93 % of control | [10] 110 % of control

NC(C(=O)O)C(CC(=O)O)C(=O)O (stereo not drawn)
inactive: [9] 93 % of control | [10] 95 % of control | [11] 98 % of control

O=C(NNc1ccccc1)C(O)C(O)C(O)C(O)CO (stereo not drawn)
inactive: [20] 100 % of control | [21] 96 % of control | [22] 104 % of control

Cc1ccc(S/C(=C/c2ccccc2)C(N)=O)cc1
inactive: [7] 93 % of control | [8] 95 % of control

O=C1c2ccccc2C(F)(F)c2ccccc21
inactive: [17] 110 % of control | [18] 100 % of control | [19] 101 % of control

CC1=CP(=O)(Oc2ccc([N+](=O)[O-])cc2)CC1 (stereo not drawn)
inactive: [23] 102 % of control

Cc1cc(Cl)ccc1NC(=O)Nc1cccc(F)c1
inactive: [17] 88 % of control | [18] 90 % of control | [19] 86 % of control

COc1ccc(C)c(CN(C)C)c1
inactive: [24] 107 % of control | [3] 101 % of control

C[S+](C)(=O)CCCS(=O)(=O)[O-]
inactive: dose: 100.0 mg/kg/injection, schedule: Q04DX002 (ip), vehicle: saline 99 % of control | dose: 200.0 mg/kg/injection, schedule: Q04DX002 (ip), vehicle: saline 92 % of control | dose: 400.0 mg/kg/injection, schedule: Q04DX002 (ip), vehicle: saline 92 % of control

O=S(=O)(O)CC1(CS(=O)(=O)O)COC1
inactive: [3] 95 % of control | dose: 100.0 mg/kg/injection, schedule: Q01DX009 (ip), vehicle: acetone 118 % of control | [4] 95 % of control | dose: 200.0 mg/kg/injection, schedule: Q01DX009 (ip), vehicle: acetone 106 % of control | [5] 96 % of control | dose: 400.0 mg/kg/injection, schedule: Q01DX009 (ip), vehicle: acetone 95 % of control

CC(C)=NC(=O)NO.[Cl][Mn][Cl]
inactive: dose: 37.5 mg/kg/injection, schedule: Q01DX009 (ip), vehicle: saline 105 % of control | [23] 91 % of control | dose: 75.0 mg/kg/injection, schedule: Q01DX009 (ip), vehicle: saline 111 % of control | dose: 150.0 mg/kg/injection, schedule: Q01DX001 (ip), vehicle: saline 104 % of control | dose: 150.0 mg/kg/injection, schedule: Q01DX009 (ip), vehicle: saline 105 % of control

Nc1[nH]c(=S)[nH]c(=O)c1N
inactive: dose: 12.0 mg/kg/injection, schedule: Q01DX009 (ip), vehicle: other 102 % of control | [1] 97 % of control | dose: 25.0 mg/kg/injection, schedule: Q01DX009 (ip), vehicle: other 102 % of control | [2] 104 % of control | dose: 50.0 mg/kg/injection, schedule: Q01DX009 (ip), vehicle: other 105 % of control | dose: 50.0 mg/kg/injection, schedule: Q04DX003 (ip), vehicle: saline 118 % of control | dose: 125.0 mg/kg/injection, schedule: Q01DX Z (ip), vehicle: methylcellulose (MC) 106 % of control | dose: 250.0 mg/kg/injection, schedule: Q01DX Z (ip), vehicle: methylcellulose (MC) 117 % of control

CC(=O)NCC(O)C(O)C(O)C(/C=N/Nc1ccccc1)=N/Nc1ccccc1 (stereo not drawn)
inactive: dose: 50.0 mg/kg/injection, schedule: Q04DX002 (ip), vehicle: saline with Tween-80 88 % of control | [15] 92 % of control | [16] 98 % of control

COC(=O)c1cccc(F)c1C(=O)c1ccc2ccccc2c1
inactive: [6] 100 % of control | [7] 91 % of control | [8] 97 % of control

O=S(=O)(F)c1ccc(CBr)cc1
inactive: dose: 25.0 mg/kg/injection, schedule: Q01DX001 (ip), vehicle: saline 113 % of control | [24] 123 % of control | [3] 95 % of control and 98 % of control

CCCCCCCCCC(=O)N1CCCC(C)C1 (stereo not drawn)
inactive: [12] 100 % of control | dose: 50.0 mg/kg/injection, schedule: Q01DX009 (ip), vehicle: carboxymethylcellulose (CMC) 94 % of control | dose: 50.0 mg/kg/injection, schedule: Q04DX003 (ip), vehicle: carboxymethylcellulose (CMC) 101 % of control | [13] 98 % of control | dose: 100.0 mg/kg/injection, schedule: Q01DX009 (ip), vehicle: carboxymethylcellulose (CMC) 90 % of control and 91 % of control | dose: 100.0 mg/kg/injection, schedule: Q04DX002 (ip), vehicle: carboxymethylcellulose (CMC) 93 % of control and 95 % of control | dose: 100.0 mg/kg/injection, schedule: Q04DX003 (ip), vehicle: carboxymethylcellulose (CMC) 95 % of control | [14] 94 % of control | dose: 200.0 mg/kg/injection, schedule: Q01DX009 (ip), vehicle: carboxymethylcellulose (CMC) 89 % of control | dose: 200.0 mg/kg/injection, schedule: Q04DX002 (ip), vehicle: carboxymethylcellulose (CMC) 101 % of control and 103 % of control | dose: 200.0 mg/kg/injection, schedule: Q04DX003 (ip), vehicle: carboxymethylcellulose (CMC) 97 % of control | dose: 400.0 mg/kg/injection, schedule: Q04DX002 (ip), vehicle: carboxymethylcellulose (CMC) 92 % of control

CC(=O)Nc1ccc(F)c(Cl)c1F
inactive: dose: 100.0 mg/kg/injection, schedule: Q04DX002 (ip), vehicle: Klucel (hydroxypropylcellulose) (HPC) 121 % of control | dose: 200.0 mg/kg/injection, schedule: Q04DX002 (ip), vehicle: Klucel (hydroxypropylcellulose) (HPC) 105 % of control | dose: 400.0 mg/kg/injection, schedule: Q04DX002 (ip), vehicle: Klucel (hydroxypropylcellulose) (HPC) 102 % of control

— PubChem BioAssay AID248 (DTP/NCI, 2004)
